Source: paper PMC8232704, “Hydrophobic Tagging-Mediated Degradation of Transcription Coactivator SRC-1” (International Journal of Molecular Sciences, 2021)
Bridge positions count the residues as written; N and C are the ends. Square brackets hold non-standard residues; d marks the D form. Peptide text beside a SMILES is read from it. N(1-adamantyl)Gly = O=C(O)CNC12CC3CC(CC(C3)C1)C2; Cha = N[C@@H](CC1CCCCC1)C(=O)O; S5 = C=CCCC[C@](C)(N)C(=O)O; PEG1 = NCCOCCC(=O)O; Ahx = NCCCCCC(=O)O; Ava = NCCCCC(=O)O; GABA = NCCCC(=O)O

Columns and labels:
[1] = Circular dichroism (CD), calculated helicity; format: physicochemical; settings: 50 μM peptide in 30% PBS (pH 7.4) and 70% acetonitrile, calculated from CD spectra
Description: Lyophilized compounds (YL2 and YL2-HyT1 through YL2-HyT6) were dissolved in 30% PBS (pH 7.4) and 70% acetonitrile solution to a final concentration of 50 μM. CD spectra were measured with a Jasco J-815 CD spectropolarimeter using a quartz cuvette (2 mm path length). These spectra were averages of five successive accumulations with a scan rate of 100 nm/min. Raw data were converted in terms of per-residue molar ellipticity (deg·cm^2·dmol^−1·residue^−1) as calculated per mole of amide groups present and normalized by the molar concentration of peptides. Smoothing and correction of background spectra were performed with Origin Pro 8.0 (OriginLab Corporation, Northampton, MA, USA). Then α-helical propensities of YL2 and YL2-HyT1 through YL2-HyT6 were calculated as previously reported.

[2] = target: T1, PAS-B domain of human SRC-1 (residues 257–385) (Homo sapiens, UniProt Q15788); assay: Competitive fluorescence polarization (FP) assay, fluorescein-labeled STAT-6 peptide binding to SRC-1; settings: 100 nM fluorescein-labeled 15-mer STAT-6 peptide, 1 μM PAS-B domain of SRC-1, HEPES pH 7.4, SD from three independent experiments
T1 construct: PAS-B domain of human SRC-1 (residues 257–385); His6; made in house; host or cells: Rosetta E. coli
T1 sequence (Q15788 257-385): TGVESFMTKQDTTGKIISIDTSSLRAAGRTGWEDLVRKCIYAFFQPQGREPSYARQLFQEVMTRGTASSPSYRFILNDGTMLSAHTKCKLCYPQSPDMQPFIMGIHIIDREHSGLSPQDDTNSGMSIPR
Description: A plasmid expressing the PAS-B domain of human SRC-1 (residues 257–385) tagged with His6 was provided by John A. Robinson (University of Zürich at Switzerland). It was transformed into Rosetta E. coli cells. SRC-1 protein purification was performed as described previously.
After incubating 100 nM of fluorescein-labeled 15-mer STAT-6 peptide with 1 μM of PAS-B domain of SRC-1 in a binding buffer (50 mM HEPES pH 7.4, 150 mM NaCl, 3.4 mM EDTA, and 0.01% Tween 20) in a black Greiner 384-well plate for 30 min, indicated concentrations of YL2 and YL2-HyT1 through YL2-HyT6 were added to each well. After incubation for another 1.5 h, fluorescence polarization was measured on a Tecan Infinite F200 Pro microplate reader (excitation wavelength: 485 nm, emission wavelength: 535 nm). The Ki values of the compounds in the competition assay were determined using the following equation [43]. (1) Ki=[I]50/[L]50/KD+[P]0/KD+1 where [I]50 is the concentration of the free inhibitor at 50% inhibition, KD is the dissociation constant of the protein–ligand complex, [L]50 is the concentration of the free labeled ligand at 50% inhibition, and [P]0 is the concentration of the free protein at 0% inhibition.

[3] = target: T2, SRC-1 in MDA-MB-231 cells (Homo sapiens, UniProt Q15788); assay: Immunoblot analysis of cellular SRC-1 levels (SRC-1 degradation); format: cell-based; settings: MDA-MB-231 cells, 18 h, normalized to GAPDH and DMSO controls
T2 construct: endogenous in cells; host or cells: MDA-MB-231
T2 sequence (Q15788 whole entry): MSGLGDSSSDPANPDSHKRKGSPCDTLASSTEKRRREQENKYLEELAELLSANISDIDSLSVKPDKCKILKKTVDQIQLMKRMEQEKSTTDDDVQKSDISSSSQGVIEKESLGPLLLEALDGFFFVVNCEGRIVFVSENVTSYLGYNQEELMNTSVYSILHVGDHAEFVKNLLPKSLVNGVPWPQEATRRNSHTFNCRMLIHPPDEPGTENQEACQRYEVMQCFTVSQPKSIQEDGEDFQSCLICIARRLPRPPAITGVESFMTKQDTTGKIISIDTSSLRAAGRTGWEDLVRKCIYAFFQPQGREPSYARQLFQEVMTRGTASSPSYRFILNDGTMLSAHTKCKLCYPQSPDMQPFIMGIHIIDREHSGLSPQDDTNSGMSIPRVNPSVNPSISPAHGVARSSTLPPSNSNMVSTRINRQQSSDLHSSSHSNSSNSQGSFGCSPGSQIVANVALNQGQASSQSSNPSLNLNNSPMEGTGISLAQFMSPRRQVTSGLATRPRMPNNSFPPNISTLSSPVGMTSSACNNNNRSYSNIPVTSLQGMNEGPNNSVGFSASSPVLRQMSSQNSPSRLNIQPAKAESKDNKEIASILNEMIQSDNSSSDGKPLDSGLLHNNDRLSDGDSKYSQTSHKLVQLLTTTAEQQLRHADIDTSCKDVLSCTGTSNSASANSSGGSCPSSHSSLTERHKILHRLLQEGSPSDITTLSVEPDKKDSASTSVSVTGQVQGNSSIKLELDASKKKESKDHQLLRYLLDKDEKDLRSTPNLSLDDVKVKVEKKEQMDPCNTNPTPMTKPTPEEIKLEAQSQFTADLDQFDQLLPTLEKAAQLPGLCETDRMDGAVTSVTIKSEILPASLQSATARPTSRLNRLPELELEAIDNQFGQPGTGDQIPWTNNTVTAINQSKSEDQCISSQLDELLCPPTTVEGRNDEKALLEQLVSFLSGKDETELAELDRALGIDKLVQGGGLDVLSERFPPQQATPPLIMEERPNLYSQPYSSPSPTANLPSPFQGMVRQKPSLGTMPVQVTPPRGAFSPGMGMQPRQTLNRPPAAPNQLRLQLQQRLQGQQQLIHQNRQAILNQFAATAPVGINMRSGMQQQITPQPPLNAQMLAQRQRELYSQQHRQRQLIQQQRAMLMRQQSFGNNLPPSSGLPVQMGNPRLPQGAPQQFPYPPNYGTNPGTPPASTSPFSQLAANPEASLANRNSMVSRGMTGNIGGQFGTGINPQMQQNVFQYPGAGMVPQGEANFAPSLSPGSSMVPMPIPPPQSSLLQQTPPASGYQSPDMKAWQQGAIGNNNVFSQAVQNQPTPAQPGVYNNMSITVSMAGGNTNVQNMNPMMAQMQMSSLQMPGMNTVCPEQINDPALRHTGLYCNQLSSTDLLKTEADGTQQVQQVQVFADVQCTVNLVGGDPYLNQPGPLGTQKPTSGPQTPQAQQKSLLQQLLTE
Description: MDA-MB-231 and HEK293T cells were cultured in a medium containing Dulbecco’s modified eagle medium (DMEM) supplemented with 1% penicillin–streptomycin (PS) and 10% FBS with 5% CO2 at 37 °C.
MDA-MB-231 cells were seeded into 6-well pates (Corning, 3506) at a density of 6 × 10^5 cell per well. After incubation at 37 °C for 24 h, cells were treated with synthesized compounds in Opti-MEM medium for 12, 18, or 24 h. Cells were washed twice with cold Dulbecco’s phosphate-buffered saline (DPBS) prior to cell lysis using a cell lysis buffer (1% Triton X-100, 150 mM NaCl, 50 mM Tris-HCl pH 7.6, 0.1% SDS, 0.5% sodium deoxycholate, and 1 × protease inhibitor cocktail) on ice. Cell lysates were centrifuged at 13,000 rpm at 4 °C for 15 min. The supernatant was collected, and protein concentration was determined using Pierce^TM 660nm protein assay. A 6 × SDS loading buffer was added to the cell lysate and incubated at 95 °C for 5 min. The same amount of protein was subjected to SDS-PAGE and transferred to PVDF membranes. After blocking membranes with 5% skim milk in TBST (Tris-buffered saline with 0.05% Tween 20), membranes were incubated with a primary antibody at 4 °C overnight. Membranes were then incubated with HRP-linked secondary antibody at rt for 1 h and developed with Pico ECL solution. In MG-132 and 17-AAG treatment experiments, MDA-MB-231 cells were cotreated with synthesized compounds and MG-132 (5 μM) or 17-AAG (1 μM) at 37 °C for 18 h.

SMILES	Helicity (%) [1]	Ki [2]	SRC-1 (%) ([3]; 10 μM compound)	SRC-1 (%) ([3]; 20 μM compound)	SRC-1 (%) ([3]; 50 μM compound)
CC(C)C[C@H](NC(=O)CCCNC(=O)CNC12CC3CC(CC(C3)C1)C2)C(=O)N[C@@H](CC(C)C)C(=O)N1CCC[C@H]1C(=O)N1CCC[C@H]1C(=O)N[C@H](C(=O)N[C@@H](CCC(=O)O)C(=O)N[C@@H](CCC(N)=O)C(=O)N[C@@H](CC(=O)O)C(=O)N[C@@H](CC(C)C)C(=O)N[C@@]1(C)CCC/C=C\CCC[C@@](C)(C(=O)N[C@@H](Cc2ccc(O)cc2)C(N)=O)NC(=O)[C@H](CC2CCCCC2)NC(=O)[C@H](CC(C)C)NC(=O)[C@H](CCCCN)NC1=O)[C@@H](C)O [YL2-HyT1] (H-[N(1-adamantyl)Gly][GABA]LLPPTEQDL[S5]KL[Cha][S5]Y-NH2; staple (Z) 12-16; C-terminus assumed)	24.1%	1080 ± 32 nM	98%	99%	91%
CC(C)C[C@H](NC(=O)CCCCNC(=O)CNC12CC3CC(CC(C3)C1)C2)C(=O)N[C@@H](CC(C)C)C(=O)N1CCC[C@H]1C(=O)N1CCC[C@H]1C(=O)N[C@H](C(=O)N[C@@H](CCC(=O)O)C(=O)N[C@@H](CCC(N)=O)C(=O)N[C@@H](CC(=O)O)C(=O)N[C@@H](CC(C)C)C(=O)N[C@@]1(C)CCC/C=C\CCC[C@@](C)(C(=O)N[C@@H](Cc2ccc(O)cc2)C(N)=O)NC(=O)[C@H](CC2CCCCC2)NC(=O)[C@H](CC(C)C)NC(=O)[C@H](CCCCN)NC1=O)[C@@H](C)O [YL2-HyT2] (H-[N(1-adamantyl)Gly][Ava]LLPPTEQDL[S5]KL[Cha][S5]Y-NH2; staple (Z) 12-16; C-terminus assumed)	18.7%	1520 ± 87 nM	92%	85%	66%
CC(C)C[C@H](NC(=O)CCCCCNC(=O)CNC12CC3CC(CC(C3)C1)C2)C(=O)N[C@@H](CC(C)C)C(=O)N1CCC[C@H]1C(=O)N1CCC[C@H]1C(=O)N[C@H](C(=O)N[C@@H](CCC(=O)O)C(=O)N[C@@H](CCC(N)=O)C(=O)N[C@@H](CC(=O)O)C(=O)N[C@@H](CC(C)C)C(=O)N[C@@]1(C)CCC/C=C\CCC[C@@](C)(C(=O)N[C@@H](Cc2ccc(O)cc2)C(N)=O)NC(=O)[C@H](CC2CCCCC2)NC(=O)[C@H](CC(C)C)NC(=O)[C@H](CCCCN)NC1=O)[C@@H](C)O [YL2-HyT3] (H-[N(1-adamantyl)Gly][Ahx]LLPPTEQDL[S5]KL[Cha][S5]Y-NH2; staple (Z) 12-16; C-terminus assumed)	24.9%	681 ± 54 nM	73%	58%	50%
CC(C)C[C@H](NC(=O)CCOCCNC(=O)CNC12CC3CC(CC(C3)C1)C2)C(=O)N[C@@H](CC(C)C)C(=O)N1CCC[C@H]1C(=O)N1CCC[C@H]1C(=O)N[C@H](C(=O)N[C@@H](CCC(=O)O)C(=O)N[C@@H](CCC(N)=O)C(=O)N[C@@H](CC(=O)O)C(=O)N[C@@H](CC(C)C)C(=O)N[C@@]1(C)CCC/C=C\CCC[C@@](C)(C(=O)N[C@@H](Cc2ccc(O)cc2)C(N)=O)NC(=O)[C@H](CC2CCCCC2)NC(=O)[C@H](CC(C)C)NC(=O)[C@H](CCCCN)NC1=O)[C@@H](C)O [YL2-HyT4] (H-[N(1-adamantyl)Gly][PEG1]LLPPTEQDL[S5]KL[Cha][S5]Y-NH2; staple (Z) 12-16; C-terminus assumed)	29.9%	484 ± 52 nM	83%	53%	70%
